Measurements: article PMC8672067, “Inhibitors of the Bub1 spindle assembly checkpoint kinase: synthesis of BAY-320 and comparison with 2OH-BNPP1” (Royal Society Open Science, 2021)

Molecular target: T1, Bub1 (Homo sapiens, UniProt O43683)
T1 construct: full-length Bub1 with an N-terminal GFP tag (GFP-Bub1), purified from HEK-293 cells on beads
Assay: in vitro kinase assay with purified GFP-Bub1 and H2A, H2ApT120 immunoblot, […] ATP
Type: biochemical

T1 sequence (O43683 whole entry): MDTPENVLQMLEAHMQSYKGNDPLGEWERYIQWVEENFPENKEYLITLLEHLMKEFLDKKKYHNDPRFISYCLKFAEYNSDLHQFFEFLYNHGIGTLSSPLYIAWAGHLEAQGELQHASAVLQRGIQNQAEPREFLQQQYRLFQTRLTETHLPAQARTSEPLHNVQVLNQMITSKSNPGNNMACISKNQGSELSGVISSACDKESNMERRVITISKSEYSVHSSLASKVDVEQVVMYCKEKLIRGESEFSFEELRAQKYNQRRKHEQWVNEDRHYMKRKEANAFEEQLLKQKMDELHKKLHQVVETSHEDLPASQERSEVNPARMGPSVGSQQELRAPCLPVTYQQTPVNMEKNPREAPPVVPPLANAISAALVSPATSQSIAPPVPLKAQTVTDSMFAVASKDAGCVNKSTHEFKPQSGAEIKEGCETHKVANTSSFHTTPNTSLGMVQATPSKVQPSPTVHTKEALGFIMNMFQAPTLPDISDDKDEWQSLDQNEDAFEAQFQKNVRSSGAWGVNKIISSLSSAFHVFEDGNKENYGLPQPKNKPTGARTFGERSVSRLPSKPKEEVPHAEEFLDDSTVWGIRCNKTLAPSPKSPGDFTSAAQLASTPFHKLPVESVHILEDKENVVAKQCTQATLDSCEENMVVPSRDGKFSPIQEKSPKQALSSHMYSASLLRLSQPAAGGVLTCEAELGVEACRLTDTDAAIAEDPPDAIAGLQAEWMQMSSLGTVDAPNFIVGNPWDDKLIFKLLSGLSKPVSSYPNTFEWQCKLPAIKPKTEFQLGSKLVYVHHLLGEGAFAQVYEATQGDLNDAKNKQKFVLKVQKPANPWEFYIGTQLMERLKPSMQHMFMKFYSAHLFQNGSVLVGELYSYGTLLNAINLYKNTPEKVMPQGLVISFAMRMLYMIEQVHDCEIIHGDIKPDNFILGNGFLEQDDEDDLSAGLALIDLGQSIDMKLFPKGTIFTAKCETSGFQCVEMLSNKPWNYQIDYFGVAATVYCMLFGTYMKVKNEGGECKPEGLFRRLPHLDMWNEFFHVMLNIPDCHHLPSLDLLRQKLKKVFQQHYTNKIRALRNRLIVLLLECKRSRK

Row | IC50 [nM] | SMILES
1 | 600 | CC(C)(C)n1nc(Cc2ccccc2O)c2c(N)ncnc21 [2OH-BNPP1]
2 | 560 | CCOc1cc(F)c(Cn2nc(-c3ncc(OC)c(Nc4ccncc4)n3)c(C)c2C2CC2)c(F)c1 [compound 11, 2-[5-Cyclopropyl-1-(4-ethoxy-2,6-difluorobenzyl)-4-methyl-1H-pyrazol-3-yl]-5-methoxy-N-(pyridine-4-yl)pyrimidin-4-amine]
